Read-outs that look alike come from different tables or passages of the source. One block for each compound: values may come before it.
Columns and labels:
Format in all cases: biochemical
FGFR1 = target: T1, FGFR1 (Homo sapiens, UniProt P11362); test: Inhibition of FGFR1 kinase (fluorescence polarization kinase assay)
T1 construct: purchased Upstate Company
Description: (§1) Inhibition activities of kinases of the inventive compounds (test compounds) prepared in the Examples were assessed and represented as IC50 values.
(§2) Kinases used in Test Examples 1 to 3 were purchased from Upstate Company.
(§3) 100 mM HEPES (pH 7.4), 25 mM MgCl2, 10 mM MnCl2 and 250 μM Na3VO4 were mixed to prepare a kinase buffer. Each of kinases to be measured was diluted to a concentration of 25˜300 ng per one reaction according to its activity with the kinase buffer. Also, each of the test compounds was serially diluted to a concentration starting from 100 nM up to 0.1 nM with the kinase buffer. 10 μl of the serially diluted solution of each of the test compounds and 10 μl of the diluted kinase were added to each well of a 96-well microplate, and the plate was incubated at room temperature for 10 mins. 10 μl of a substrate and 10 μl of ATP were successively added thereto to initiate a kinase reaction, and the resulting mixture was incubated at room temperature for 1 hour. The ATP was used in a form of a solution diluted to a concentration determined according to a kinase's Km value with distilled water. 10˜100 ng/mL poly(Glu, Tyr) 4:1 (Sigma) was used as the substrate. 10 μl of 6 mM EDTA was added to each well and stirred for 5 mins to terminate the kinase reaction. For a measurement of phosphorylation degree, 50 μl of a solution containing anti-phosphotyrosine antibody and fluorescein-labeled phosphopeptide was added to the reaction mixture, followed by incubating for 30 mins. The FP (fluorescence polarization) value of each well was determined with a Victor™ D fluorescence meter (Perkin Elmer Lifesciences).
(§4) IC50, the concentration at which 50% inhibition occurs, was evaluated based on the difference between the final concentration of the test cells and the initial concentration of the cells incubated in a well not-treated with the test compound which was regarded as 100%. IC50 values of the test compounds on the FGFR kinase were shown in Table 2, and those of the test compound obtained in Example 177 on various kinases, in Table 3.

Her2 = target: T2, Her2 (Homo sapiens, UniProt P04626); test: Inhibition of Her2 kinase; conditions: Table 3
T2 construct: purchased Upstate Company
Description: as §1, §2
as §3, with “10 μl of 6 mM EDTA was added to each well and stirred for 5 mins to terminate the kinase reaction. For a measurement of phosphorylation degree, 50 μl of a solution containing anti-phosphotyrosine antibody and fluorescein-labeled phosphopeptide was added to the reaction mixture, followed by incubating for 30 mins.” left out, “Lifesciences). […]” for “Lifesciences).”

Src = target: T3, Src (Homo sapiens, UniProt P12931); test: Inhibition of Src kinase (Profluor Src kinase assay kit); conditions: Table 3
T3 construct: purchased Upstate Company
Description: as §1, §2
(§5) An inhibition activity of Src kinase was determined with an Src kinase assay kit (Profluor™, Promega). Each of kinases to be measured was diluted to a concentration of 25 ng per one reaction with the kinase buffer provided in the kit. Also, each of the test compounds was serially diluted to a concentration starting from 100 μM up to 0.1 nM with 10% DMSO. 5 μl of the serially diluted solution of each of the test compounds and 20 μl of the diluted kinase were added to each well of a 96-well microplate, and the plate was incubated at room temperature for 10 mins. 25 μl of ATP was added thereto, followed by incubating for 1 hour, and a protease solution was added thereto, followed by incubating for 1 hour. 25 μl of a stabilizer solution was added to the resulting solution, followed by incubating in dark for 5 mins. The absorbance of each well was determined with a fluorescence reader (Molecular Devices) (excitation wavelength: 485 nm, emission wavelength: 530 nm). […]

EGFR = target: T4, EGFR (Homo sapiens, UniProt P00533); test: Inhibition of EGFR (Her1) kinase; conditions: Table 3
T4 construct: purchased Upstate Company
Description: as §1, §2
as §3, with “10 μl of 6 mM EDTA was added to each well and stirred for 5 mins to terminate the kinase reaction. For a measurement of phosphorylation degree, 50 μl of a solution containing anti-phosphotyrosine antibody and fluorescein-labeled phosphopeptide was added to the reaction mixture, followed by incubating for 30 mins.” left out, “Lifesciences). […]” for “Lifesciences).”

Kit = target: T5, Kit (Homo sapiens, UniProt P10721); test: Inhibition of Kit kinase; conditions: Table 3
T5 construct: purchased Upstate Company
Description: as §1, §2
as §3, with “10 μl of 6 mM EDTA was added to each well and stirred for 5 mins to terminate the kinase reaction. For a measurement of phosphorylation degree, 50 μl of a solution containing anti-phosphotyrosine antibody and fluorescein-labeled phosphopeptide was added to the reaction mixture, followed by incubating for 30 mins.” left out, “Lifesciences). […]” for “Lifesciences).”

FGFR3 = target: T6, FGFR3 (Homo sapiens, UniProt P22607); test: Inhibition of FGFR3 kinase (fluorescence polarization kinase assay)
T6 construct: purchased Upstate Company
Description: as §1, §2, §3, §4

Ret = target: T7, Ret (Homo sapiens, UniProt P07949); test: Inhibition of Ret kinase; conditions: Table 3
T7 construct: purchased Upstate Company
Description: as §1, §2
as §3, with “10 μl of 6 mM EDTA was added to each well and stirred for 5 mins to terminate the kinase reaction. For a measurement of phosphorylation degree, 50 μl of a solution containing anti-phosphotyrosine antibody and fluorescein-labeled phosphopeptide was added to the reaction mixture, followed by incubating for 30 mins.” left out, “Lifesciences). […]” for “Lifesciences).”

Fyn = target: T8, Fyn (Homo sapiens, UniProt P06241); test: Inhibition of Fyn kinase (Profluor kit procedure); conditions: Table 3
T8 construct: purchased Upstate Company
Description: as §1, §2, §5

Tie2 = target: T9, Tie2 (Homo sapiens, UniProt Q02763); test: Inhibition of Tie2 kinase; conditions: Table 3
T9 construct: purchased Upstate Company
Description: as §1, §2
as §3, with “10 μl of 6 mM EDTA was added to each well and stirred for 5 mins to terminate the kinase reaction. For a measurement of phosphorylation degree, 50 μl of a solution containing anti-phosphotyrosine antibody and fluorescein-labeled phosphopeptide was added to the reaction mixture, followed by incubating for 30 mins.” left out, “Lifesciences). […]” for “Lifesciences).”

PDGFRβ = target: T10, PDGFRβ (Homo sapiens, UniProt P09619); test: Inhibition of PDGFRβ kinase; conditions: Table 3
T10 construct: purchased Upstate Company
Description: as §1, §2
as §3, with “10 μl of 6 mM EDTA was added to each well and stirred for 5 mins to terminate the kinase reaction. For a measurement of phosphorylation degree, 50 μl of a solution containing anti-phosphotyrosine antibody and fluorescein-labeled phosphopeptide was added to the reaction mixture, followed by incubating for 30 mins.” left out, “Lifesciences). […]” for “Lifesciences).”

Lck = target: T11, Lck (Homo sapiens, UniProt P06239); test: Inhibition of Lck kinase (Profluor kit procedure); conditions: Table 3
T11 construct: purchased Upstate Company
Description: as §1, §2, §5

KDR = target: T12, KDR (Homo sapiens, UniProt P35968); test: Inhibition of KDR kinase; conditions: Table 3
T12 construct: purchased Upstate Company
Description: as §1, §2
as §3, with “10 μl of 6 mM EDTA was added to each well and stirred for 5 mins to terminate the kinase reaction. For a measurement of phosphorylation degree, 50 μl of a solution containing anti-phosphotyrosine antibody and fluorescein-labeled phosphopeptide was added to the reaction mixture, followed by incubating for 30 mins.” left out, “Lifesciences). […]” for “Lifesciences).”

Flt1 = target: T13, Flt1 (Homo sapiens, UniProt P17948); test: Inhibition of Flt1 kinase; conditions: Table 3
T13 construct: purchased Upstate Company
Description: as §1, §2
as §3, with “10 μl of 6 mM EDTA was added to each well and stirred for 5 mins to terminate the kinase reaction. For a measurement of phosphorylation degree, 50 μl of a solution containing anti-phosphotyrosine antibody and fluorescein-labeled phosphopeptide was added to the reaction mixture, followed by incubating for 30 mins.” left out, “Lifesciences). […]” for “Lifesciences).”

PDGFRα = target: T14, PDGFRα (Homo sapiens, UniProt P16234); test: Inhibition of PDGFRα kinase; conditions: Table 3
T14 construct: purchased Upstate Company
Description: as §1, §2
as §3, with “10 μl of 6 mM EDTA was added to each well and stirred for 5 mins to terminate the kinase reaction. For a measurement of phosphorylation degree, 50 μl of a solution containing anti-phosphotyrosine antibody and fluorescein-labeled phosphopeptide was added to the reaction mixture, followed by incubating for 30 mins.” left out, “Lifesciences). […]” for “Lifesciences).”

Met = target: T15, Met (Homo sapiens, UniProt P08581); test: Inhibition of Met kinase; conditions: Table 3
T15 construct: purchased Upstate Company
Description: as §1, §2
as §3, with “10 μl of 6 mM EDTA was added to each well and stirred for 5 mins to terminate the kinase reaction. For a measurement of phosphorylation degree, 50 μl of a solution containing anti-phosphotyrosine antibody and fluorescein-labeled phosphopeptide was added to the reaction mixture, followed by incubating for 30 mins.” left out, “Lifesciences). […]” for “Lifesciences).”

Lyn = target: T16, Lyn (Homo sapiens, UniProt P07948); test: Inhibition of Lyn kinase (Profluor kit procedure); conditions: Table 3
T16 construct: purchased Upstate Company
Description: as §1, §2, §5

Fms = target: T17, Fms (Homo sapiens, UniProt P07333); test: Inhibition of Fms kinase; conditions: Table 3
T17 construct: purchased Upstate Company
Description: as §1, §2
as §3, with “10 μl of 6 mM EDTA was added to each well and stirred for 5 mins to terminate the kinase reaction. For a measurement of phosphorylation degree, 50 μl of a solution containing anti-phosphotyrosine antibody and fluorescein-labeled phosphopeptide was added to the reaction mixture, followed by incubating for 30 mins.” left out, “Lifesciences). […]” for “Lifesciences).”

Flt3 = target: T18, Flt3 (Homo sapiens, UniProt P36888); test: Inhibition of Flt3 kinase; conditions: Table 3
T18 construct: purchased Upstate Company
T18 sequence (P36888 27-993): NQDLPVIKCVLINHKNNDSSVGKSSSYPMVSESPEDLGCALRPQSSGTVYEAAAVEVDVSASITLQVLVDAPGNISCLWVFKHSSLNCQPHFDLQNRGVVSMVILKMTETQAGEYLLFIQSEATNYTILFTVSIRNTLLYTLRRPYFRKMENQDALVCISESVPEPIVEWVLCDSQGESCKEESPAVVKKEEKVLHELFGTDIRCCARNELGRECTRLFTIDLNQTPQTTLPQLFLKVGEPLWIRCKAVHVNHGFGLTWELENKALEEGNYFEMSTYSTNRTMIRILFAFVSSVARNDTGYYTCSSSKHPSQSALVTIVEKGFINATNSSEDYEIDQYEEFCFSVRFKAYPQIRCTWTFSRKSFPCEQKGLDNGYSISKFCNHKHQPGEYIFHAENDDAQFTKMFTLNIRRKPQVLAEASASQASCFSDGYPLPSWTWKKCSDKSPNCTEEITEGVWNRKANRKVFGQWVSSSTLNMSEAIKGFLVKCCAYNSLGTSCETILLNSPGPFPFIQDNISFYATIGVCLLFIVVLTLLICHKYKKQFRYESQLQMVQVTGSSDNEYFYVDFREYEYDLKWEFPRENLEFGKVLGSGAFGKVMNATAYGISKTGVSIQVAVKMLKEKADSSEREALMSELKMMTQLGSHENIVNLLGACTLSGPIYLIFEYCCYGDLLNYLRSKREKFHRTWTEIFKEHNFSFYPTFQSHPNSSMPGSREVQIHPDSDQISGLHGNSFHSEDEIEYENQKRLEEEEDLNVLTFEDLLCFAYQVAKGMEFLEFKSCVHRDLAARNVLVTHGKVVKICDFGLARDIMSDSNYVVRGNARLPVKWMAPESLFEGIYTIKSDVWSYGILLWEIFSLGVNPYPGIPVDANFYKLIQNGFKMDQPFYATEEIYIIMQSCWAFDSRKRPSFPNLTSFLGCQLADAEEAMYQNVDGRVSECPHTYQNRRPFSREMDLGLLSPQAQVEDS
Description: as §1, §2
as §3, with “10 μl of 6 mM EDTA was added to each well and stirred for 5 mins to terminate the kinase reaction. For a measurement of phosphorylation degree, 50 μl of a solution containing anti-phosphotyrosine antibody and fluorescein-labeled phosphopeptide was added to the reaction mixture, followed by incubating for 30 mins.” left out, “Lifesciences). […]” for “Lifesciences).”

[1] = Table 2, class symbols, read-out: FGFR1 IC50
[2] = Table 2, class symbols, read-out: FGFR3 IC50

T6 sequence (P22607 23-806, species assumed): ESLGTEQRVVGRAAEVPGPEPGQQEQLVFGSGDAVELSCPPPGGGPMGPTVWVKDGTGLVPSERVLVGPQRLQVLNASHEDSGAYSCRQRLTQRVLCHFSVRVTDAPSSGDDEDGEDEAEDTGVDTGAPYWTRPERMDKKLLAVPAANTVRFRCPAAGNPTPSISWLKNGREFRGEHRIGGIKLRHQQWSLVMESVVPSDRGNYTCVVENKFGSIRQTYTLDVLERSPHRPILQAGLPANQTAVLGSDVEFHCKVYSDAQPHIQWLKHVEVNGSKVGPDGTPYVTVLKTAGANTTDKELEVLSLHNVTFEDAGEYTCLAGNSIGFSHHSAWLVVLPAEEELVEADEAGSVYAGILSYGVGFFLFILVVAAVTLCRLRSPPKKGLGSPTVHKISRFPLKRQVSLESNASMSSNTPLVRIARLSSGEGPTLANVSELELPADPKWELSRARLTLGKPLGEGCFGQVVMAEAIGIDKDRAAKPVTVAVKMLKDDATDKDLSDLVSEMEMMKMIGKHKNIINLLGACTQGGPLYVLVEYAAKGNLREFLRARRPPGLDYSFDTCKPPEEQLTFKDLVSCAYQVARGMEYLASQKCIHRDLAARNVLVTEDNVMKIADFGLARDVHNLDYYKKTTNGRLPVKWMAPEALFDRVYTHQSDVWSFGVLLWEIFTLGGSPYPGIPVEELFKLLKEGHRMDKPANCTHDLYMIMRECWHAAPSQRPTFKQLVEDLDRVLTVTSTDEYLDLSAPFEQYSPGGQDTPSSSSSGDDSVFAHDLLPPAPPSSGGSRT
T1 sequence (P11362 22-822, species assumed): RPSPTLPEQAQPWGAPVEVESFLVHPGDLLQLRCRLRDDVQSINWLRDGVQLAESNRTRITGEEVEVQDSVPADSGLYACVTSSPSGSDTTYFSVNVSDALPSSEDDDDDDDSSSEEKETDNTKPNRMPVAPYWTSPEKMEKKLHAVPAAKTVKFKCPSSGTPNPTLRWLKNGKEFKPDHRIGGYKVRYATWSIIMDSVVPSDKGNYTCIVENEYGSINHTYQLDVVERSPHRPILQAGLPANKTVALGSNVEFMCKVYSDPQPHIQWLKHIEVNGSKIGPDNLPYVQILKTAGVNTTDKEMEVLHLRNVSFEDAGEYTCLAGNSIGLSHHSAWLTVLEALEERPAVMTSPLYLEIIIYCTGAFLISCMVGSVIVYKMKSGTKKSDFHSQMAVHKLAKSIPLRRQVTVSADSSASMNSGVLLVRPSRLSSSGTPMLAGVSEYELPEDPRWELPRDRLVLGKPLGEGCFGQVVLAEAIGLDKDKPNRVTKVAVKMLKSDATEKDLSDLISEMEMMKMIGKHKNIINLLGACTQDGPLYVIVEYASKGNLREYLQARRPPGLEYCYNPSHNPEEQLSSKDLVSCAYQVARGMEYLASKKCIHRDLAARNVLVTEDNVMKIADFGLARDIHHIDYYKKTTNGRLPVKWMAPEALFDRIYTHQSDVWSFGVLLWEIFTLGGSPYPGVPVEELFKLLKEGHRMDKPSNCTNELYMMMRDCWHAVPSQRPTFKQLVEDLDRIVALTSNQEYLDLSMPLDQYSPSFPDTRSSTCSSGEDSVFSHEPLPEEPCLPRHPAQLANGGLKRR
T14 sequence (P16234 24-1089, species assumed): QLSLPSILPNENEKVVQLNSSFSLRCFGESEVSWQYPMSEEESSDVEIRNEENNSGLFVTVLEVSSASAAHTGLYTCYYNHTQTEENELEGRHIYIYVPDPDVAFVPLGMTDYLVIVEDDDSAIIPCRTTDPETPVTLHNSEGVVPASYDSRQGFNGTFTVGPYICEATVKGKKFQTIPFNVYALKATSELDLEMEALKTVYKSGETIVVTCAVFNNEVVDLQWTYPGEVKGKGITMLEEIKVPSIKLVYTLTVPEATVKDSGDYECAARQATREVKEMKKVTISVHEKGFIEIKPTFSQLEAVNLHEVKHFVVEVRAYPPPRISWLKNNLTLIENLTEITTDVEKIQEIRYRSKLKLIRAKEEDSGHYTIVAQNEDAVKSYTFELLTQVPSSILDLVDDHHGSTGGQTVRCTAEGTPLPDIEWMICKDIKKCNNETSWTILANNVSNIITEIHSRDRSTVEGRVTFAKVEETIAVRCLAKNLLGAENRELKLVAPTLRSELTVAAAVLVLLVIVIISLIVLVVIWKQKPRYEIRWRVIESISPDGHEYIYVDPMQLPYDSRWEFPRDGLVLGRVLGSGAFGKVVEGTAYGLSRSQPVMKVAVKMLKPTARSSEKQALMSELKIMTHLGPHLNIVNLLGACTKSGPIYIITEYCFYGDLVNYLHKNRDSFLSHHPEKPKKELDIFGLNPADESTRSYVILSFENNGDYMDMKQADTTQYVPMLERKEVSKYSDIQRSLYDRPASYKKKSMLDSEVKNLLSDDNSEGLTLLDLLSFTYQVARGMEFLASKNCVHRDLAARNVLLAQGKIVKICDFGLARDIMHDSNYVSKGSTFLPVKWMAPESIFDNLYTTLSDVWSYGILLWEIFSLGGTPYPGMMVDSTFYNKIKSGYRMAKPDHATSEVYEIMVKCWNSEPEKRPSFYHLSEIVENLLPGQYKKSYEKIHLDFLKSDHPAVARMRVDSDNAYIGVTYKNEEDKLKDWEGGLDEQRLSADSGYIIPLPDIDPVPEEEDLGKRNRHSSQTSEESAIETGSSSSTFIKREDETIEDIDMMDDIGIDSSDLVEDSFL
T8 sequence (P06241 whole entry, species assumed): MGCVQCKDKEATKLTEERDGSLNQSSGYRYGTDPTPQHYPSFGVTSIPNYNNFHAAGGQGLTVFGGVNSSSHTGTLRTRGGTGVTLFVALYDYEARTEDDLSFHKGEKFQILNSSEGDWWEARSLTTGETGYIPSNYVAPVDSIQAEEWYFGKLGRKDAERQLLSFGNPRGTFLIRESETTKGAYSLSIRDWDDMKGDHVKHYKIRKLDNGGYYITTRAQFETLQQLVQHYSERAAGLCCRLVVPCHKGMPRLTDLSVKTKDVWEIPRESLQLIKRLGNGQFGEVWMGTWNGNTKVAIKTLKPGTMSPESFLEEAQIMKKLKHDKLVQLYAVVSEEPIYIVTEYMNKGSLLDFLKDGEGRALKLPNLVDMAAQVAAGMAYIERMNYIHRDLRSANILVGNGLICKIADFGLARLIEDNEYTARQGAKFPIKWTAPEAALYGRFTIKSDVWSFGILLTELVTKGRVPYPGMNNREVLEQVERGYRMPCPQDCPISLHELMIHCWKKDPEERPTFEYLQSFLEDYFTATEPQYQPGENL
T13 sequence (P17948 27-1338, species assumed): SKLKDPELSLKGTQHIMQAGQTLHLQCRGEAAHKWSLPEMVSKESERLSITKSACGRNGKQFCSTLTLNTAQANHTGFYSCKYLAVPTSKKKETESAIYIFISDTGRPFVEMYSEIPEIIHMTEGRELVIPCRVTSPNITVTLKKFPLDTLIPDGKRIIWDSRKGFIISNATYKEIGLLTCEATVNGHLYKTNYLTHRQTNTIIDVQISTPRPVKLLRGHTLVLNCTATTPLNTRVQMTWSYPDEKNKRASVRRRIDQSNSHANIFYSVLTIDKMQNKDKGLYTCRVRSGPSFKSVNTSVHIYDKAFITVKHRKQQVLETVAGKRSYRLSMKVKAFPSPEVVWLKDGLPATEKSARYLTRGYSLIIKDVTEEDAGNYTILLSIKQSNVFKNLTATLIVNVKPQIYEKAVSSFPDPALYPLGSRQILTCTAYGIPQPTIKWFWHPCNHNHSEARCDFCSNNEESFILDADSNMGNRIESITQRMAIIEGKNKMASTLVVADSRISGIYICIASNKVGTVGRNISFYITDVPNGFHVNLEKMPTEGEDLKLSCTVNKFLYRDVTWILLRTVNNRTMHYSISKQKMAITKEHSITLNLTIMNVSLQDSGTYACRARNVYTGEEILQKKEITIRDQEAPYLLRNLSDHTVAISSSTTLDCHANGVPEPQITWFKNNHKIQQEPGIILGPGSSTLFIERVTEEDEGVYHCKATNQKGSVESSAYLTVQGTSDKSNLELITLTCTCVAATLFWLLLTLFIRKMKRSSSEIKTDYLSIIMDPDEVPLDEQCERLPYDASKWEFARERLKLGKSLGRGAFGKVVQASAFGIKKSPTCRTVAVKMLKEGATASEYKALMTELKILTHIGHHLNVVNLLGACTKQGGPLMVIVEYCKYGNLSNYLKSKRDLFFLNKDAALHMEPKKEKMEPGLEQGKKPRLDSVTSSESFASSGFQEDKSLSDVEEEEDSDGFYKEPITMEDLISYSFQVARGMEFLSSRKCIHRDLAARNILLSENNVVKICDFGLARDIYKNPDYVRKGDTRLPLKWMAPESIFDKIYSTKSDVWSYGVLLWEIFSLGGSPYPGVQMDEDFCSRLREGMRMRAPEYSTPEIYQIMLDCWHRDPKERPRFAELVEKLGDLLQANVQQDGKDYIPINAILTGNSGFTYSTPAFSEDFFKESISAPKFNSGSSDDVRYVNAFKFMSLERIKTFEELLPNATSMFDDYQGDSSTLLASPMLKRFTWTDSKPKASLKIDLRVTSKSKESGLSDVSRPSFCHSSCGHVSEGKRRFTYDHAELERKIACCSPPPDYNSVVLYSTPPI
T11 sequence (P06239 whole entry, species assumed): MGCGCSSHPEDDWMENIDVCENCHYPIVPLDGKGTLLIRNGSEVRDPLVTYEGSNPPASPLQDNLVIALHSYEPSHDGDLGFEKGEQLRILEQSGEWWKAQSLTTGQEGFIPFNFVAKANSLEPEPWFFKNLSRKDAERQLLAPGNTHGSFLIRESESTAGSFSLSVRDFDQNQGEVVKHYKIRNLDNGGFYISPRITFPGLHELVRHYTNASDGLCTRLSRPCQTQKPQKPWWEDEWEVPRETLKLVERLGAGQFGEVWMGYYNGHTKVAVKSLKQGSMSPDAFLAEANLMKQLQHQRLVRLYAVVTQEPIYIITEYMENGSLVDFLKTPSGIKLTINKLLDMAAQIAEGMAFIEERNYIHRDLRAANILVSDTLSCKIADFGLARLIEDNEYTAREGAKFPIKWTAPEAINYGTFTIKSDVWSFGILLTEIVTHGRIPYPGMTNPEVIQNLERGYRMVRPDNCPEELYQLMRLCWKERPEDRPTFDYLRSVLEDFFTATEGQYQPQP

IC50 (FGFR1; Table 3, read-out: IC50 (nM) FGFR1): < 100 nM | IC50 (Her2): > 1000 nM | IC50 (Src): > 1000 nM | IC50 (EGFR): > 1000 nM | IC50 (Kit): > 1000 nM | IC50 (FGFR3; Table 3, read-out: IC50 (nM) FGFR3): < 100 nM | IC50 (Ret): > 1000 nM | IC50 (Fyn): > 1000 nM | IC50 (Tie2): > 1000 nM | IC50 (PDGFRβ): > 1000 nM | IC50 (Lck): > 1000 nM | IC50 (KDR): < 200 nM | IC50 (Flt1): > 1000 nM | IC50 (PDGFRα): > 1000 nM | IC50 (Met): > 1000 nM | IC50 (Lyn): > 1000 nM | IC50 (Fms): < 200 nM | IC50 (Flt3): > 1000 nM
SMILES: COc1cc(OC)c(Cl)c(NC(=O)c2csc3c(NC(=O)C4CC4)ncnc23)c1Cl [Example 177, 4-(cyclopropanecarbox-amido)-N-(2,6-dichloro-3,5-dimethoxyphenyl) thieno[3,2-d]pyrimidine-7-carboxamide]

IC50 (FGFR1; [1]): 1 to 100 nM | IC50 (FGFR3; [2]): 100 to 500 nM
SMILES: COc1cc(O)c(Cl)c(NC(=O)c2csc3c(N)ncnc23)c1Cl [Example 217, 4-Amino-N-(2,6-dichloro-3-hydroxy-5-methoxyphenyl)thieno[3,2-d]pyrimidine-7-carboxamide]

IC50 (FGFR1; [1]): 1 to 100 nM | IC50 (FGFR3; [2]): 1 to 100 nM
SMILES: CCN1CCN(Cc2ccc(Nc3ncnc4c(C(=O)Nc5c(Cl)c(OC)cc(OC)c5Cl)csc34)nc2)CC1 [Example 179, N-(2,6-dichloro-3,5-dimethoxyphenyl)-4-(5-((4-ethylpiperazin-1-yl)methyl)pyridin-2-ylamino)thieno[3,2-d]pyrimidine-7-carboxamide]

IC50 (FGFR1; [1]): 1 to 100 nM | IC50 (FGFR3; [2]): 1 to 100 nM
SMILES: COc1cc(OC)c(Cl)c(NC(=O)c2csc3c(Nc4ccc(CN5CCOCC5)cn4)ncnc23)c1Cl [Example 247, N-(2,6-dichloro-3,5-dimethoxyphenyl)-4-(5-(morpholinomethyl)pyridin-2-ylamino)thieno[3,2-d]pyrimidine-7-carboxamide]

From patent US10112954B2, “Bicyclic heteroaryl derivatives having inhibitory activity for protein kinase” (HANMI PHARM. CO., LTD., priority 2010, dated 2018)
